From patent US10308608B2, “Histone deacetylase inhibitors” (BIOMARIN PHARMACEUTICAL INC., priority 2015, dated 2019)
Structures can show the parent of a compound that is named as a salt.

System: Frataxin (FXN) mRNA
Assay: Effect of HDAC inhibitors on frataxin (FXN) mRNA expression, qRT-PCR in compound-treated iPSC derived neuronal cells
Type: cell-based
Settings: iPSC, 24 h, compound concentration of 0.625 μM, 24 h incubation, read-out: FXN mRNA fold induction
Description: Effect of HDAC Inhibitors on Frataxin (FXN) mRNA Expression
Method: mRNA quantification of compound-treated iPSC derived neuronal cells Neuronal stem cells were cultured in Neurobasal A medium (Life technologies #10888022) supplemented with N2, B27 (Life technologies #17502-048 and #17504-044), L-glutamine (Life technologies #25030081), supplemented with 20 ng/ml EGF (R&D Systems #236-EG) and 20 ng/ml bFGF (BioPioneer # HRP-0011). Neuronal differentiation was initiated by removing growth factors and culturing cells in Neurobasal A with N2 and B27. Cells were allowed to differentiate for 16 days. HDAC inhibitory compound was then added and incubate for 24 h. RNA isolation was performed using the RNeasy Plus mini kit (QIAgen #74134) using a QIAcube instrument per manufacturer's instructions. qRT-PCR was performed using qScript One-Step SYBR Green qRT-PCR Kit (Quanta Biosciences 170-8893BR) with the following conditions: 20 minutes at 50° C., 5 minutes at 95° C., and then 40 cycles of 20 seconds at 95° C., 20 seconds at 55° C., 30 seconds at 72° C. The primer sequences to detect expression of FXN were: 5′-[…]-3′ and 5′-[…]-3′.
The data for the following compounds, for FXN mRNA fold induction at a compound concentration of 0.625 μM are shown in Table 1, where A<1, 1<B<2, 2<C<3, 3<D<5, E>5.

Compound	fold induction at 0.625 µM
CC(C)(O)CN1CC[C@@H](Nc2ccc(C(=O)Nc3ccccc3N)cc2)C1 [Compound 105, (R)-N-(2-aminophenyl)-4-((1-(2-hydroxy-2-methylpropyl)pyrrolidin-3-yl)amino)benzamide trihydrochloride]	2 to 3
Nc1ccccc1NC(=O)c1ccc(N[C@H]2CCNC2)cc1 [Compound 94, (S)-N-(2-aminophenyl)-4-(pyrrolidin-3-ylamino)benzamide trihydrochloride]	1 to 2
Nc1ccccc1NC(=O)c1ccc(OC2CCCN(CC3CCCCC3)CC2)cc1 (single isomer, unassigned) [Compound 40A, N-(2-aminophenyl)-4-((1-(cyclohexylmethyl)azepan-4-yl)oxy)benzamide dihydrochloride]	1 to 2
CC(=O)N1CC(Nc2ccc(C(=O)Nc3ccccc3N)cc2)C1 [Compound 170, 4-((1-acetylazetidin-3-yl)amino)-N-(2-aminophenyl)benzamide]	1 to 2
CC(C)(O)CN1CCC(Nc2ccc(C(=O)Nc3ccccc3N)cc2)CC1(C)C (stereo not shown) [Compound 369, N-(2-aminophenyl)-4-((1-(2-hydroxy-2-methylpropyl)-2,2-dimethylpiperidin-4-yl)amino)benzamide]	1 to 2
Nc1ccccc1NC(=O)c1ccc(NC2CCCN(CC3CCCCC3)CC2)cc1 (stereo not shown) [Compound 85, N-(2-aminophenyl)-4-((1-(cyclohexylmethyl)azepan-4-yl)amino)benzamide]	2 to 3
CC(C)CN1CC[C@H](Nc2ccc(C(=O)Nc3ccccc3N)cc2)C1 [Compound 96, (S)-N-(2-aminophenyl)-4-((1-isobutylpyrrolidin-3-yl)amino)benzamide]	1 to 2
CN1CC[C@H](Nc2ccc(C(=O)Nc3ccccc3N)cc2)C1 [Compound 95, (S)-N-(2-aminophenyl)-4-((1-methylpyrrolidin-3-yl)amino)benzamide]	1 to 2
Nc1ccccc1NC(=O)c1ccc(N[C@@H]2CCN(CC3CCCCC3)C2)cc1 [Compound 109, (R)-N-(2-aminophenyl)-4-((1-(cyclohexylmethyl)pyrrolidin-3-yl)amino)benzamide]	2 to 3
Nc1ccccc1NC(=O)c1ccc(OC2CCN(CC34CC5CC(CC(C5)C3)C4)CC2)cc1 [Compound 133, 4-((1-(((3r,5r,7r)-adamantan-1-yl)methyl)pipendin-4-yl)oxy)-N-(2-aminophenyl)benzamide dihydrochloride]	2 to 3
CN1CC[C@@H](Oc2ccc(C(=O)Nc3ccccc3N)cc2)C1 [Compound 58, (R)-N-(2-aminophenyl)-4-((1-methylpyrrolidin-3-yl)oxy)benzamide]	2 to 3
CC(C)(C)CN1CC[C@H](Oc2ccc(C(=O)Nc3ccccc3N)cc2)C1 [Compound 53, (S)-N-(2-aminophenyl)-4-((1-neopentylpyrrolidin-3-yl)oxy)benzamide]	1 to 2
CC(C)(O)CN1CCC(Oc2ccc(C(=O)Nc3ccccc3N)cc2)CC1 [Compound 2, N-(2-aminophenyl)-4-((1-(2-hydroxy-2-methylpropyl)piperidin-4-yl)oxy)benzamide]	1 to 2
CC1(CN2CC[C@@H](Nc3ccc(C(=O)Nc4ccccc4N)cc3)C2)CC1 [Compound 108, (R)-N-(2-aminophenyl)-4-((1-((1-methylcyclopropyl)methyl)pyrrolidin-3-yl)amino)benzamide]	2 to 3
CC(C)(O)CN1CCCC(Oc2ccc(C(=O)Nc3ccccc3N)cc2)CC1 (stereo not shown) [Compound 36, N-(2-aminophenyl)-4-((1-(2-hydroxy-2-methylpropyl)azepan-4-yl)oxy)benzamide dihydrochloride]	1 to 2
Nc1ccccc1NC(=O)c1ccc(O[C@@H]2CCN(C3CC3)C2)cc1 [Compound 129, (R)-N-(2-aminophenyl)-4-((1-cyclopropylpyrrolidin-3-yl)oxy)benzamide]	1 to 2
Nc1ccccc1NC(=O)c1ccc(OC2CCN(CC3CCCCC3)CC2)cc1 [Compound 69, N-(2-aminophenyl)-4-((1-(cyclohexylmethyl)piperidin-4-yl)oxy)benzamide dihydrochloride]	1 to 2
Nc1ccccc1NC(=O)c1ccc(O[C@H]2CCNC2)cc1 [Compound 49, (S)-N-(2-aminophenyl)-4-(pyrrolidin-3-yloxy)benzamide hydrochloride]	2 to 3
Nc1ccccc1NC(=O)c1ccc(OC2CCN(C3CC3)CC2)cc1 [Compound 131, N-(2-aminophenyl)-4-((1-cyclopropylpiperidin-4-yl)oxy)benzamide dihydrochloride]	1 to 2
Nc1ccccc1NC(=O)c1ccc(N[C@@H]2CCN(C3COC3)C2)cc1 [Compound 139, (R)-N-(2-aminophenyl)-4-((1-(oxetan-3-yl)pyrrolidin-3-yl)amino)benzamide tris(2,2,2-trifluoroacetate)]	1 to 2
Nc1ccccc1NC(=O)c1ccc(N[C@H]2CCCN(CC3CCCCC3)CC2)cc1 (single isomer, unassigned) [Compound 85B]	2 to 3
Nc1ccccc1NC(=O)c1ccc(O[C@@H]2CCCN(CC3CC3)CC2)cc1 [Compound 38B, (R)-N-(2-aminophenyl)-4-((1-(cyclopropylmethyl)azepan-4-yl)oxy)benzamide]	1 to 2
CC(C)(O)CN1CC[C@@H](Oc2ccc(C(=O)Nc3ccccc3N)cc2)C1 [Compound 60, (R)-N-(2-aminophenyl)-4-((1-(2-hydroxy-2-methylpropyl)pyrrolidin-3-yl)oxy)benzamide dihydrochloride]	1 to 2
CC(C)(C)CN1CC(Oc2ccc(C(=O)Nc3ccccc3N)cc2)C1 [Compound 45, dihydrochloride]	1 to 2
Nc1ccccc1NC(=O)c1ccc(O[C@H]2CCN(C3COC3)C2)cc1 [Compound 128, (S)-N-(2-aminophenyl)-4-((1-(oxetan-3-yl)pyrrolidin-3-yl)oxy)benzamide]	1 to 2
CC(C)(O)CN1CCC(Sc2ccc(C(=O)Nc3ccccc3N)cc2)CC1 [Compound 375, N-(2-aminophenyl)-4-((1-(2-hydroxy-2-methylpropyl)piperidin-4-yl)thio)benzamide]	1 to 2
Nc1ccccc1NC(=O)c1ccc(N[C@@H]2CCN(C3CC3)C2)cc1 [Compound 138, (R)-N-(2-aminophenyl)-4-((1-cyclopropylpyrrolidin-3-yl)amino)benzamide trihydrochloride]	2 to 3
Nc1ccccc1NC(=O)c1ccc(OC2CN(CC3CC3)C2)cc1 [Compound 46, N-(2-aminophenyl)-4-((1-(cyclopropylmethyl)azetidin-3-yl)oxy)benzamide dihydrochloride]	1 to 2
CC(C)(O)CN1CC[C@H](Oc2ccc(C(=O)Nc3ccccc3N)cc2)C1 [Compound 52, (S)-N-(2-aminophenyl)-4-((1-(2-hydroxy-2-methylpropyl)pyrrolidin-3-yl)oxy)benzamide dihydrochloride]	1 to 2
Nc1ccccc1NC(=O)c1ccc(NC2CCN(CC3CC3)CC2)cc1 [Compound 3, N-(2-aminophenyl)-4-((1-(cyclopropylmethyl)piperidin-4-yl)amino)benzamide]	1 to 2

Same assay, conditions: iPSC, 24 h, read-out: FXN mRNA fold induction, compound concentration of 0.625 μM, 24 h incubation

Compound	fold induction at 0.625 µM
CC(C)CN1C2CCC1CC(Nc1ccc(C(=O)Nc3ccccc3N)cc1)C2 (stereo not shown) [Compound 117, N-(2-aminophenyl)-4-((8-isobutyl-8-azabicyclo[3.2.1]octan-3-yl)amino)benzamide]	2 to 3
CC(C)(C)CN1C2CCC1CC(Nc1ccc(C(=O)Nc3ccccc3N)cc1)C2 (stereo not shown) [Compound 119, N-(2-aminophenyl)-4-((8-neopentyl-8-azabicyclo[3.2.1]octan-3-yl)amino)benzamide]	2 to 3
CC1(CN2C3CCC2CC(Oc2ccc(C(=O)Nc4ccccc4N)cc2)C3)CC1 (stereo not shown) [Compound 76, N-(2-aminophenyl)-4-((8-((1-methylcyclopropyl)methyl)-8-azabicyclo[3.2.1]octan-3-yl)oxy)benzamide dihydrochloride]	2 to 3
CC(C)(O)CN1C2CCC1CC(Oc1ccc(C(=O)Nc3ccccc3N)cc1)C2 (stereo not shown) [Compound 73, N-(2-aminophenyl)-4-((8-(2-hydroxy-2-methylpropyl)-8-azabicyclo[3.2.1]octan-3-yl)oxy)benzamide dihydrochloride]	1 to 2
CCN(c1ccc(C(=O)Nc2ccccc2N)cc1)C1CCN(CC(C)(C)O)CC1 [Compound 27, N-(2-aminophenyl)-4-(ethyl(1-(2-hydroxy-2-methylpropyl)piperidin-4-yl)amino)benzamide Trihydrochloride]	2 to 3
CN(c1ccc(C(=O)Nc2ccccc2N)cc1)C1CCN(CC2CC2)CC1 [Compound 5, N-(2-aminophenyl)-4-((1-(cyclopropylmethyl)piperidin-4-yl)(methyl)amino)benzamide]	2 to 3
CN(c1ccc(C(=O)Nc2ccccc2N)cc1)C1CCN(CC(C)(C)O)CC1 [Compound 6, N-(2-aminophenyl)-4-((1-(2-hydroxy-2-methylpropyl)piperidin-4-yl)(methyl)amino) benzamide]	2 to 3
